Test system: denuded oocytes (DO)
Assay: Oocyte assay, antagonistic testing, inhibition of FF-Mas induced maturation in denuded oocytes (DO assay)
Type: cell-based, mice (B6D2-F1, strain C57BL×DBA)
Details: FF-Mas 5 μM, compound tested 5 μM, control (FF-Mas alone) in brackets
Description: The meiosis inhibiting activity of the 22R-hydroxycholesta-8,14-diene derivatives of the invention is measured in an in vitro oocyte assay as the ability to inhibit the FF-Mas or 22S-hydroxy-FF-Mas induced maturation, in hypoxanthine media, in denuded oocytes (DO) or cumulus enclosed oocytes (CEO), respectively. Natural resumption of meiosis can be mimicked in vitro by addition of FF-Mas or other agonists to the culture medium containing hypoxanthine. The antagonistic activity of the compounds is measured as the ability to inhibit the FF-Mas or 22S-hydroxy-FF-Mas induced oocyte maturation in denuded oocytes or cumulus enclosed oocytes, respectively, in vitro. Ovaries are obtained from immature female mice (B6D2-F1, strain C57BL×DBA). At the age of 19, 20 or 21 days the mice are injected subcutaneously with a single dose of 20 IU follicle stimulating hormone (Humegon, Organon, The Netherlands) in saline. Forty-eight hours after follicle stimulating hormone injection mice are killed by cervical dislocation. The ovaries are removed, freed of extraneous tissue and placed in a multidish containing 0.5 ml preparation medium at 37° C. L-15 Leibovitz medium (Gibco, pH 7.3±0.1) supplemented with bovine serum albumin (3 mg·ml^−1), L-glutamine (0.23 mM), sodium pyruvate (2 mM) and hypoxanthine (4 mM) is used as preparation medium. The antral follicles of the ovaries are punctured under a dissecting microscope using two 27-gauge needles attached to two 1 ml syringes. […] At t=0 the number of oocytes with intact germinal vesicles (GV) or germinal vesicle break-down (GVBD) is counted under an inverted microscope with differential interference contrast equipment. […] At the end of the culture period the number of oocytes with GV or GVBD per group is counted. For statistical analysis the percentage germinal vesicle breakdown is calculated for each group in one block. These percentages are subjected to arcsin transformation, and differences between control and test compounds are analyzed by an ANOVA test for a randomized block design. […]

SMILES	% GVBD DO assay exp.
CC(C)CC[C@@H](O)[C@@H](C)[C@H]1CC=C2C3=C(CC[C@@]21C)[C@@]1(C)CC[C@H](O)C(C)(C)[C@@H]1CC3 [Example 1, (3β,5α,20S,22R)-4,4-Dimethylcholesta-8,14-diene-3,22-diol]	0(55) %
CC(C)=CC[C@@H](O)[C@@H](C)[C@H]1CC=C2C3=C(CC[C@@]21C)[C@@]1(C)CC[C@H](O)C(C)(C)[C@@H]1CC3 [Example 2, (3β,5α,20S,22R)-4,4-Dimethylcholesta-8,14,24-triene-3,22-diol]	0(90) %

Reference: patent US6518262B1, “22R-hydroxycholesta-8, 14-diene derivatives for the inhibition of meiosis” (Akzo Nobel N.V., priority 1999, dated 2003)
